Reference: patent EP0326963B1, “Deodorant as well as deodorizing food, drink and seasoning” (priority 1988, dated 1989)
Where “and” joins values, the source holds several entries; their conditions need not be identical. Equal values may be shown once.

Experiments:
[1] = tested on: urogenous smell; assay: Test Example 6: urogenous smell of hamsters, potassium phytate in drinking water; type: in vivo; conditions: hamsters (2 pairs); 10mg/kg in drinking water over 14 days; checked on finely cut newspaper used as litter
Procedure: An aqueous solution containing potassium phytate in an amount of 20mg/ml was prepared. The solution was added to drinking water for each experimented animal (hamsters, 2 pairs) over 14 days, so that each animal can intake the compound in an amount of 10mg/kg.

[2] = tested on: urogenous smell; assay: Test Example 2: smell of fresh urine of cats, potassium phytate solution 20mg/ml; type: in vivo, crossbred mature cats; design: key to Deodorizing Effects 1st day / Deodorizing Effects 3rd day / Deodorizing Effects 5th day / Deodorizing Effects 7th day: 1: No change; 2: Weaken; 3: Almost no recognizable smell; conditions: 20mg/ml solution
Procedure: (§1) A solution containing potassium phytate in an amount of 20mg/ml (Example 1) was administered to crossbred mature cats (8 heads, body weight of about 5kg) in an amount of 3ml/head/day over 7 days. After 1, 3, 5 and 7 days from the first administration, fresh urine was taken with use of a catheter to immediately check a degree of its smell by 3 judges. […]

[3] = tested on: urogenous smell; assay: Test Example 1: smell of fresh urine of cats, potassium phytate solution 8mg/ml; type: in vivo; design: key to Deodorizing Effects 1st day / Deodorizing Effects 3rd day / Deodorizing Effects 5th day / Deodorizing Effects 7th day / Deodorizing Effects 14th day: 1: No change; 2: Weaken; 3: Almost no recognizable smell
Procedure: as §1, with “of 8mg/ml” for “of 20mg/ml”, “to” for “to crossbred mature”, “cats (5” for “cats (8”, “over 14” for “over 7”, “3, 5, 7” for “3, 5”, “and 14” for “and 7”

[4] = tested on: urogenous smell; assay: Test Example 3: smell of fresh urine of cats, potassium phytate/lactose powder in food; type: in vivo, crossbred mature cats; design: key to Deodorizing Effects 1st day / Deodorizing Effects 3rd day / Deodorizing Effects 5th day / Deodorizing Effects 7th day: 1: No change; 2: Weaken; 3: Almost no recognizable smell
Procedure: A powder composition was prepared by mixing potassium phytate and lactose, which composition containing the phytate in an amount of 24mg/g. The composition was mixed with a powdered food which was […] by crossbred mature cats (8 heads, body weight of about 5kg) in an amount of 1g/head/day based on the composition over 7 days. After 1, 3, 5 and 7 days from the first administration, fresh urine was taken with use of a catheter to immediately check a degree of its smell by 3 judges. […]

[5] = tested on: ozostomy; type: in vivo, normal persons; conditions: 3 judges
Procedure: Following substances generating unpleasant smell were intaken by each panel (3 normal persons) who immediately drinks an aqueous solution of potassium phytinate (105mg/10ml). On contrary thereto, each control panel drinks were drinking water in same amount.
An inspection of ozostmy was carried out from time to time at intervals by 3 judges (to be judged as positive, when 2 or 3 judges feel the unpleasant smell) and by self notification of the experimented person.
Unpleasant smell generating materials : • a) Garlic (10g as grated one), • b) Leek (50g as cooked one), • c) Scallion (50g as pickled one), • d) Onion (100g as grated one), • e) Welsh onion (100g as cooked one), • f) Tobacco (carrying out a functional test by the third party on smokers who smoke more than 50 cigarette per diem), and • g) Alcohol (drink 300ml of Japanese sake, when the stomach of experimented person emties).

[6] = tested on: urogenous smell; assay: Test Example 10: urogenous smell of rats fed high protein cat food; type: in vivo; design: key: Judged by 4 stage judgement of ++, +, ± and −; Judged by 4 stage judgement of ++, +, ± and −; Judged by 4 stage judgement of ++, +, ± and −; Judged by 4 stage judgement of ++, +, ± and −
Procedure: As experimental animal, rats were employed, they had been fed with a cat food of high protein content (30%) to excrete urine with a smell inherent in that of cats. To test group I, potassium phytate was administrated in abdominal cavity at a dose of 3mg/day over 5 days and while, to test group II, the compound was given in the similar to the above but at a dose of 30mg/day. To control group, no compound was given.

[7] = tested on: urogenous smell; assay: Test Example 5: smell of fresh urine of rabbits, potassium phytate in drinking water; type: in vivo; design: key to Deodorizing Effects 1st day / Deodorizing Effects 3rd day / Deodorizing Effects 5th day / Deodorizing Effects 7th day / Deodorizing Effects 14th day: 1: No change; 2: Weaken; 3: Almost no recognizable smell
Procedure: An aqueous solution containing potassium phytate in an amount of 20mg/ml was added to 170 ml of drinking water for each experimented animal (rabbits, 2 heads) in amount of 2ml. The resulting drinking water was given for each day over 14 days, so that it can be […] by the animal in free together with their food. After 1, 3, 5, 7 and 14 days from the first giving of the drinking water containing the compound, fresh urine was taken with use of a catheter to immediately check a degree of its smell by 3 judges. […] While, there was no change in a fragrant smell which may be considered due to plant terpenes contained in their food.

[8] = tested on: urogenous smell; assay: Test Example 4: smell of fresh urine of cats, cat food containing potassium phytate; type: in vivo, crossbred mature cats; design: key to Deodorizing Effects 2nd day / Deodorizing Effects 3rd day / Deodorizing Effects 4th day / Deodorizing Effects 5th day / Deodorizing Effects 7th day: 1: No change; 2: Weaken; 3: Almost no recognizable smell; conditions: cat food with 0.1mg/g
Procedure: To a moisture type cat food, potassium phytate was composed in an amount of 0.1mg/g. The cat food was given to crossbred mature cats (2 heads, body weight of about 5kg) in an amount 100g/day over 7 days. After 2, 3, 4, 5 and 7 days from the first administration, fresh urine was taken with use of a catheter to immediately check a degree of its smell by 3 judges. […]

[9] = cats, 8mg/ml solution, 3ml/head/day
[10] = cats, powder 24mg/g, 1g/head/day in food
[11] = test group I: 3mg/day in abdominal cavity over 5 days
[12] = test group II: 30mg/day in abdominal cavity over 5 days
[13] = rabbits, potassium phytate in drinking water

O=P(O)(O)O[C@H]1[C@H](OP(=O)(O)O)[C@@H](OP(=O)(O)O)[C@H](OP(=O)(O)O)[C@@H](OP(=O)(O)O)[C@H]1OP(=O)(O)O [potassium phytate, Potassium phytate]
intensity of the urogenous smell [1]: decreases on several days from the first administration | Efficiency 1st day ([2]; cats (8 heads), 3ml/head/day, 1st day): 0/8 | Efficiency 3rd day ([2]; cats (8 heads), 3ml/head/day, 3rd day): 0/8 | Efficiency 5th day ([2]; cats (8 heads), 3ml/head/day, 5th day): 8/8 | Efficiency 7th day ([2]; cats (8 heads), 3ml/head/day, 7th day): 8/8 | deodorizing effect of the compound appears ([2]; cats, 3ml/head/day): by third day | urogenous smell disappeared ([2]; cats, 3ml/head/day): on fifth day | Deodorizing Effects 1st day ([2]; individual cat, 3ml/head/day over 7 days, 1st day): 1 (6×) and 2 (2×) | Deodorizing Effects 3rd day ([2]; individual cat, 3ml/head/day over 7 days, 3rd day): 2 | Deodorizing Effects 5th day ([2]; individual cat, 3ml/head/day over 7 days, 5th day): 3 | Deodorizing Effects 7th day ([2]; individual cat, 3ml/head/day over 7 days, 7th day): 3 | Efficiency 1st day ([3]; cats (5 heads), 8mg/ml solution, 3ml/head/day, 1st day): 0/5 | Efficiency 3rd day ([3]; cats (5 heads), 8mg/ml solution, 3ml/head/day, 3rd day): 0/5 | Efficiency 5th day ([3]; cats (5 heads), 8mg/ml solution, 3ml/head/day, 5th day): 4/5 | Efficiency 7th day ([3]; cats (5 heads), 8mg/ml solution, 3ml/head/day, 7th day): 5/5 | Efficiency 14th day ([3]; cats (5 heads), 8mg/ml solution, 3ml/head/day, 14th day): 5/5 | deodorizing effect of the compound appears [3, 9]: by third day | urogenous smell was disappeared [3, 9]: on fifth day | similar test repeated ([3]; cats, repeated after 10 days from the final administration): results same with said first test | urogenous smell after the final administration ([3]; cats, several days after the final administration): appeared again | Deodorizing Effects 3rd day ([3]; individual cat, 8mg/ml solution, 3ml/head/day over 14 days, 3rd day): 1 and 2 (4×) | Deodorizing Effects 5th day ([3]; individual cat, 8mg/ml solution, 3ml/head/day over 14 days, 5th day): 2 and 3 (4×) | Deodorizing Effects 7th day ([3]; individual cat, 8mg/ml solution, 3ml/head/day over 14 days, 7th day): 3 | Deodorizing Effects 14th day ([3]; individual cat, 8mg/ml solution, 3ml/head/day over 14 days, 14th day): 3 | Deodorizing Effects 1st day ([3]; individual cat, 8mg/ml solution, 3ml/head/day over 14 days, fresh urine, 3 judges, 1st day): 1 | Efficiency 1st day ([4]; cats (8 heads), powder 24mg/g, 1g/head/day in food, 1st day): 0/8 | Efficiency 3rd day ([4]; cats (8 heads), powder 24mg/g, 1g/head/day in food, 3rd day): 2/8 | Efficiency 5th day ([4]; cats (8 heads), powder 24mg/g, 1g/head/day in food, 5th day): 8/8 | Efficiency 7th day ([4]; cats (8 heads), powder 24mg/g, 1g/head/day in food, 7th day): 8/8 | deodorizing effect of the compound appears [4, 10]: by third day | urogenous smell disappeared [4, 10]: on fifth day | Deodorizing Effects 1st day ([4]; individual cat, powder with lactose 24mg/g, 1g/head/day in food over 7 days, 1st day): 1 (4×) and 2 (4×) | Deodorizing Effects 3rd day ([4]; individual cat, powder with lactose 24mg/g, 1g/head/day in food, 3rd day): 3 (2×) and 2 (6×) | Deodorizing Effects 5th day ([4]; individual cat, powder with lactose 24mg/g, 1g/head/day in food, 5th day): 3 | Deodorizing Effects 7th day ([4]; individual cat, powder with lactose 24mg/g, 1g/head/day in food, 7th day): 3 | ozostomy on the test group, first inspection ([5]; aqueous solution 105mg/10ml drunk immediately after intake of smell generating material, 1 hour from the intake): not so strong | ozostomy on the test group, second inspection ([5]; aqueous solution 105mg/10ml, 3 hours from the intake): apparently decreases | Urogenous Smell 3rd day [6, 11]: + | Urogenous Smell 6th day [6, 11]: ± | Urogenous Smell 9th day [6, 11]: + | Urogenous Smell 3rd day [6, 12]: ± | Urogenous Smell 6th day [6, 12]: ± | Urogenous Smell 9th day [6, 12]: + | Deodorizing Effects 1st day ([7]; individual rabbit, 2ml of 20mg/ml solution in 170 ml drinking water per day over 14 days, 1st day): 1 | Deodorizing Effects 3rd day ([7]; individual rabbit, 2ml of 20mg/ml solution in 170 ml drinking water per day, 3rd day): 2 (3×) and 1 | Deodorizing Effects 5th day ([7]; individual rabbit, 2ml of 20mg/ml solution in 170 ml drinking water per day, 5th day): 3 (3×) and 2 | Deodorizing Effects 7th day ([7]; individual rabbit, 2ml of 20mg/ml solution in 170 ml drinking water per day, 7th day): 3 | Deodorizing Effects 14th day ([7]; individual rabbit, 2ml of 20mg/ml solution in 170 ml drinking water per day, 14th day): 3 | Efficiency 1st day ([7]; rabbits, 2ml of 20mg/ml solution in drinking water per day, 1st day): 0/4 | Efficiency 3rd day ([7]; rabbits, 2ml of 20mg/ml solution in drinking water per day, 3rd day): 0/4 | Efficiency 5th day ([7]; rabbits, 2ml of 20mg/ml solution in drinking water per day, 5th day): 3/4 | Efficiency 7th day ([7]; rabbits, 2ml of 20mg/ml solution in drinking water per day, 7th day): 4/4 | Efficiency 14th day ([7]; rabbits, 2ml of 20mg/ml solution in drinking water per day, 14th day): 4/4 | almost no unpleasant urogenous smell was notified [7, 13]: on fifth day | deodorizing effect of the compound appears [7, 13]: by third day | fragrant smell (considered due to plant terpenes contained in their food) [7, 13]: no change | Efficiency 2nd day ([8]; cats (2 heads), 100g/day, 2nd day): 0/2 | Efficiency 3rd day ([8]; cats (2 heads), 100g/day, 3rd day): 1/2 | Efficiency 4th day ([8]; cats (2 heads), 100g/day, 4th day): 2/2 | Efficiency 5th day ([8]; cats (2 heads), 100g/day, 5th day): 2/2 | Efficiency 7th day ([8]; cats (2 heads), 100g/day, 7th day): 2/2 | deodorizing effect of the compound appears ([8]; cats, 100g/day): by third day | urogenous smell disappeared ([8]; cats, 100g/day): on forth day | Deodorizing Effects 2nd day ([8]; individual cat, 100g/day over 7 days, 2nd day): 2 | Deodorizing Effects 3rd day ([8]; individual cat, 100g/day, 3rd day): 3 and 2 | Deodorizing Effects 4th day ([8]; individual cat, 100g/day, 4th day): 3 | Deodorizing Effects 5th day ([8]; individual cat, 100g/day, 5th day): 3 | Deodorizing Effects 7th day ([8]; individual cat, 100g/day, 7th day): 3
